Earlier results on one substance are cited in US20100028446A1, “TRANSPORT OF DRUGS VIA THE BLOOD-BRAIN BARRIER BY MEANS OF APOLIPOPROTEINS” (priority 2007, published 2010).

For this data set the following is noted: loaded on hydrophilic-protein nanoparticles coupled with apolipoprotein E.

In the case of Dalargin, the “transport across the blood-brain barrier” value is on record as “successfully transported across the blood-brain barrier”.
